From patent US6610853B1, “N-(phenylsulfonyl)picolinamide derivatives, process for producing the same, and herbicide” (Kureha Kagaku Kogyo K.K., priority 2000, dated 2003)

Key:
Experiment in all cases: Test on herbicidal activity by foliar application
Type in all cases: in vivo
Conditions in all cases: foliar spray, 1 kg/ha, plants at 1-2 leaf stage in pots, evaluated 14 days after spraying
[1] = test system: Abutilon theophrasti
Procedure: (§1) Test on Herbicidal Activity by Foliar Application: Herbicidal solutions of each test compounds, which were prepared by dissolving at predetermined concentrations such a wettable powder of the test compound as that described in the above Formulation Example, were sprayed at dosages of 1 kg/ha over foliar parts of Amaranthus retroflexus, Bidens pilosa, Sinapis arvensis, Stellaria media, Solanum nigrum, Abutilon theophrasti, Convolvulus arvensis, Matricaria chamomilla, Galium aparine, Veronica hederaefolia, and Setaria viridis (each test plant is 1-2 leaf stage) which were grown in pots. 14 days latter after spraying, its herbicidal activity was evaluated in accordance with the below-described system. Herbicidal Activity 1: less than 30% inhibition 2: 30% or more-50% inhibition 3: 50% or more-70% inhibition 4: 70% or more-90% inhibition 5: 90% or more inhibition

[2] = test system: Matricaria chamomilla
Procedure: as §1

[3] = test system: Veronica hederaefolia
Procedure: as §1

[4] = test system: Bidens pilosa
Procedure: as §1

[5] = test system: Amaranthus retroflexus
Procedure: as §1

[6] = test system: Stellaria media
Procedure: as §1

[7] = test system: Convolvulus arvensis
Procedure: as §1

[8] = test system: Sinapis arvensis
Procedure: as §1

[9] = test system: Solanum nigrum
Procedure: as §1

[10] = test system: Setaria viridis
Procedure: as §1

[11] = test system: Galium aparine
Procedure: as §1

| Compound | Herbicidal activity, Abutilon theophrasti [1] | Herbicidal activity, Matricaria chamomilla [2] | Herbicidal activity, Veronica hederaefolia [3] | Herbicidal activity, Bidens pilosa [4] | Herbicidal activity, Amaranthus retroflexus [5] | Herbicidal activity, Stellaria media [6] | Herbicidal activity, Convolvulus arvensis [7] | Herbicidal activity, Sinapis arvensis [8] | Herbicidal activity, Solanum nigrum [9] | Herbicidal activity, Setaria viridis [10] | Herbicidal activity, Galium aparine [11] |
| --- | --- | --- | --- | --- | --- | --- | --- | --- | --- | --- | --- |
| COc1ccc(C(=O)NS(=O)(=O)c2ccccc2C(F)(F)F)nc1 [Compound I-054, N-[(2-Trifluoromethylphenyl)sulfonyl]-5-methoxy-2-pyridinecarboxamide] | 2 (30% or more-50% inhibition) | 5 (90% or more inhibition) | 4 (70% or more-90% inhibition) | 5 (90% or more inhibition) | 3 (50% or more-70% inhibition) | 5 (90% or more inhibition) | 3 (50% or more-70% inhibition) | 5 (90% or more inhibition) | 4 (70% or more-90% inhibition) | 5 (90% or more inhibition) | 4 (70% or more-90% inhibition) |
| COC(=O)c1ccccc1S(=O)(=O)NC(=O)c1cc(Cl)cc(OC)n1 [Compound I-221, 2-[[[(4-Chloro-6-methoxypyridin-2-yl)carbonyl]-amino]sulfonyl]benzoic Acid Methyl Ester] | 4 (70% or more-90% inhibition) | 2 (30% or more-50% inhibition) | 4 (70% or more-90% inhibition) | 4 (70% or more-90% inhibition) | 5 (90% or more inhibition) | 4 (70% or more-90% inhibition) | 4 (70% or more-90% inhibition) | 5 (90% or more inhibition) | 5 (90% or more inhibition) | 3 (50% or more-70% inhibition) | 5 (90% or more inhibition) |
| COC(=O)c1ccccc1S(=O)(=O)NC(=O)c1cccc(Cl)n1 [Compound I-231, 2-[[[(6-Chloropyridin-2-yl)carbonyl]amino]-sulfonyl]benzoic Acid Methyl Ester] | 5 (90% or more inhibition) | 5 (90% or more inhibition) | 5 (90% or more inhibition) | 5 (90% or more inhibition) | 5 (90% or more inhibition) | 5 (90% or more inhibition) | 4 (70% or more-90% inhibition) | 5 (90% or more inhibition) | 5 (90% or more inhibition) | 5 (90% or more inhibition) | 5 (90% or more inhibition) |
| COC(=O)c1ccccc1S(=O)(=O)NC(=O)c1ccc(OC)cn1 [Compound I-234, 2-[[[(5-Methoxypyridin-2-yl)carbonyl]amino]-sulfonyl]benzoic Acid Methyl Ester] | 5 (90% or more inhibition) | 5 (90% or more inhibition) | 4 (70% or more-90% inhibition) | 5 (90% or more inhibition) | 5 (90% or more inhibition) | 5 (90% or more inhibition) | 4 (70% or more-90% inhibition) | 5 (90% or more inhibition) | 5 (90% or more inhibition) | 4 (70% or more-90% inhibition) | 4 (70% or more-90% inhibition) |
| COC(=O)c1ccccc1S(=O)(=O)NC(=O)c1cc(OC)cc(C)n1 [Compound I-254, 2-[[[(4-Methoxy-6-methylpyridin-2-yl)carbonyl]-amino]sulfonyl]benzoic Acid Methyl Ester] | 5 (90% or more inhibition) | 3 (50% or more-70% inhibition) | 5 (90% or more inhibition) | 5 (90% or more inhibition) | 5 (90% or more inhibition) | 5 (90% or more inhibition) | 3 (50% or more-70% inhibition) | 5 (90% or more inhibition) | 5 (90% or more inhibition) | 4 (70% or more-90% inhibition) | 5 (90% or more inhibition) |
| COC(=O)c1ccccc1S(=O)(=O)NC(=O)c1cc(OC)cc(Cl)n1 [Compound I-255, 2-[[[(6-Chloro-4-methoxypyridin-2-yl)carbonyl]-amino]sulfonyl]benzoic Acid Methyl Ester] | 5 (90% or more inhibition) | 5 (90% or more inhibition) | 5 (90% or more inhibition) | 5 (90% or more inhibition) | 4 (70% or more-90% inhibition) | 5 (90% or more inhibition) | 5 (90% or more inhibition) | 5 (90% or more inhibition) | 5 (90% or more inhibition) | 4 (70% or more-90% inhibition) | 5 (90% or more inhibition) |
| COC(=O)c1ccccc1S(=O)(=O)NC(=O)c1ccc(OC)c(Cl)n1 [Compound I-258, 2-[[[(6-Chloro-5-methoxypyridin-2-yl)carbonyl]-amino]sulfonyl]benzoic Acid Methyl Ester] | 5 (90% or more inhibition) | 5 (90% or more inhibition) | 4 (70% or more-90% inhibition) | 5 (90% or more inhibition) | 5 (90% or more inhibition) | 5 (90% or more inhibition) | 5 (90% or more inhibition) | 5 (90% or more inhibition) | 5 (90% or more inhibition) | 5 (90% or more inhibition) | 5 (90% or more inhibition) |
| COC(=O)c1ccccc1S(=O)(=O)NC(=O)c1ccc(OC)c(OC)n1 [Compound I-259, 2-[[[(5,6-Dimethoxypyridin-2-yl)carbonyl]-amino]sulfonyl]benzoic Acid Methyl Ester] | 5 (90% or more inhibition) | 4 (70% or more-90% inhibition) | 4 (70% or more-90% inhibition) | 4 (70% or more-90% inhibition) | 5 (90% or more inhibition) | 5 (90% or more inhibition) | 3 (50% or more-70% inhibition) | 5 (90% or more inhibition) | 4 (70% or more-90% inhibition) | 4 (70% or more-90% inhibition) | 5 (90% or more inhibition) |
| COC(=O)c1ccccc1S(=O)(=O)NC(=O)c1ccc(OC)c(Br)n1 [Compound I-265, 2-[[[(6-Bromo-5-methoxypyridin-2-yl)carbonyl]-amino]sulfonyl]benzoic acid methyl ester] | 5 (90% or more inhibition) | 5 (90% or more inhibition) | 3 (50% or more-70% inhibition) | 5 (90% or more inhibition) | 5 (90% or more inhibition) | 5 (90% or more inhibition) | 3 (50% or more-70% inhibition) | 5 (90% or more inhibition) | 5 (90% or more inhibition) | 4 (70% or more-90% inhibition) | 4 (70% or more-90% inhibition) |
| COc1cc(Cl)nc(C(=O)NS(=O)(=O)c2cccc(Cl)c2Cl)c1 [Compound I-345, N-[(2,3-Dichlorophenyl)sulfonyl]-6-chloro-4-methoxypyridine-2-carboxamide] | 2 (30% or more-50% inhibition) | 4 (70% or more-90% inhibition) | 3 (50% or more-70% inhibition) | 5 (90% or more inhibition) | 3 (50% or more-70% inhibition) | 4 (70% or more-90% inhibition) | 5 (90% or more inhibition) | 5 (90% or more inhibition) | 5 (90% or more inhibition) | 2 (30% or more-50% inhibition) | 4 (70% or more-90% inhibition) |
